Test results reported in ChEMBL document CHEMBL3112551, “Synthesis of 2H-1,3-benzoxazin-4(3H)-one derivatives containing indole moiety: their in vitro evaluation against PDE4B” (Bioorg Med Chem Lett, 2014).
The source made the active and inactive calls. The calls are words filed in the database; no cut-off is given here.

Biological target: 3',5'-cyclic-AMP phosphodiesterase 4B (Homo sapiens) (UniProt Q07343)
Assay: Inhibition of PDE4B (unknown origin) expressed in HEK293 cells assessed as increase in forskolin-stimulated cAMP level preincubated for 30 mins followed by forskolin-stimulation measured after 4 hrs by luciferase reporter gene assay
Assay type: functional, cell-based

Chain of 3',5'-cyclic-AMP phosphodiesterase 4B (Homo sapiens) (Q07343 whole entry): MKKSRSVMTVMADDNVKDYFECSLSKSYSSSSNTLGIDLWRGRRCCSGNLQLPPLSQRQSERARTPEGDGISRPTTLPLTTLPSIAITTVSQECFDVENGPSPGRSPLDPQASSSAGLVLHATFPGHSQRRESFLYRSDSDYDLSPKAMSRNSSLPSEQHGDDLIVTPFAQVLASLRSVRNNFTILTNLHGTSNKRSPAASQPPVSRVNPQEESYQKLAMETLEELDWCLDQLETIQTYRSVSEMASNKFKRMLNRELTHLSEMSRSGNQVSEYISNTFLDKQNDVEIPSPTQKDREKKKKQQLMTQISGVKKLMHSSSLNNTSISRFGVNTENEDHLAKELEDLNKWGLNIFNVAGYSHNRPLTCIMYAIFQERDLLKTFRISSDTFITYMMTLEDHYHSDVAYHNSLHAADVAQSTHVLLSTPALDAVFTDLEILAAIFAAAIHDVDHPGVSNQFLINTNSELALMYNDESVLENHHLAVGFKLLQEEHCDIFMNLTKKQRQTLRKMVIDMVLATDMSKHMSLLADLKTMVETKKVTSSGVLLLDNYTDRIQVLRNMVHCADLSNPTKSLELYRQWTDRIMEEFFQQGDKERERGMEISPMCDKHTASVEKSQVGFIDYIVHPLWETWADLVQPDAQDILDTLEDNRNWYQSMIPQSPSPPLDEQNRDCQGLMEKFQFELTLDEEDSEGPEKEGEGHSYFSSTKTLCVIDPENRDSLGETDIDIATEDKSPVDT

SMILES	inhibition
CS(=O)(=O)n1c(COCCN2COc3ccccc3C2=O)cc2cc([N+](=O)[O-])ccc21	Dose-dependent effect

Biological target: 3',5'-cyclic-AMP phosphodiesterase 4B (Homo sapiens) (UniProt Q07343)
Assay: Inhibition of PDE4B (unknown origin) expressed in HEK293 cells assessed as increase in forskolin-stimulated cAMP level at 30 uM preincubated for 30 mins followed by forskolin-stimulation measured after 4 hrs by luciferase reporter gene assay relative to control
Assay type: functional, cell-based

SMILES	fold change (FC)	inhibition
COc1ccc(C2CNC(=O)C2)cc1OC1CCCC1 (centres undefined)	> 7	–
CC(=O)c1ccc2c(c1)cc(COCCN1COc3ccccc3C1=O)n2S(C)(=O)=O	–	inactive
CS(=O)(=O)n1c(COCCN2COc3ccccc3C2=O)cc2cc(Cl)ccc21	–	Active
O=C1c2ccccc2OCN1CCOCc1cc2ccccc2o1	–	Active
CS(=O)(=O)n1c(COCCN2COc3ccccc3C2=O)cc2cc([N+](=O)[O-])ccc21	> 5	–
CS(=O)(=O)n1c(COCCN2COc3ccccc3C2=O)cc2cc(C(F)(F)F)ccc21	–	Active
CS(=O)(=O)n1c(COCCN2COc3ccccc3C2=O)cc2cc(F)ccc21	–	Active
CS(=O)(=O)n1c(COCCN2COc3ccccc3C2=O)cc2cc(C#N)ccc21	–	Active
